CC(=O)NC[C@H]1CN(c2ccc(/C=C(\Br)c3ccc(C(C)=O)s3)c(F)c2)C(=O)O1
melting point: 187 to 190 °C (dec.)
